35 molecules from patent US5378706A, “Fused-thiazole derivatives active on the cholinergic system, and pharmaceutical compositions containing same” (Sanofi, priority 1987, dated 1995) can be followed below.

For test [1], the target named is T1, M1 -type muscarinic cholinergic receptor (Rattus norvegicus, UniProt P08482).
T1 sequence (P08482 1-460): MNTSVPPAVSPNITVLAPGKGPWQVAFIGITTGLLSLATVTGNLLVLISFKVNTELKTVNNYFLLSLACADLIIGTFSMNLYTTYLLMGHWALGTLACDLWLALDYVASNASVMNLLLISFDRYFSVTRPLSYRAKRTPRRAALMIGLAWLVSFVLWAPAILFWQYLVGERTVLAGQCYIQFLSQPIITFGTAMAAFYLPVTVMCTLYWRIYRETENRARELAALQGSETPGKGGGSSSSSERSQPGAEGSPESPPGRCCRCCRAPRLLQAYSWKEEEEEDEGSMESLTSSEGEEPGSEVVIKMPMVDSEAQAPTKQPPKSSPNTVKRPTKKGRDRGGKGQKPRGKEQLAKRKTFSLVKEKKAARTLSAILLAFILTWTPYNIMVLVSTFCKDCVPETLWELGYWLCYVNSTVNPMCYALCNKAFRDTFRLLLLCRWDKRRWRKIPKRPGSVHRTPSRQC
Description: biochemical. The settings on record: for IC50: rat hippocampus homogenate, 3H-PZ 1 nM, 2 hours at 4° C., pH 7.40, read-out: IC50 3H-PZ (M1); for ratio R of the IC50 values for the M1 and M2 receptors: selectivity, values correspond to IC50 M2 / IC50 M1. Type of test: binding.
Description: The interaction of the molecules with the M1 -type muscarinic receptors was studied by in vitro measurement, on a rat hippocampus homogenate, of the displacement of tritiated pirenzepine from its specific binding sites. Aliquots (10 μl) of a 5% (w/v) rat hippocampus homogenate in an Na2 HPO4 buffer (50 mM, pH 7.40) are incubated for 2 hours at 4° C. in the presence of ^3 H-PZ (76 Ci/mmol; final concentration 1 nM) and increasing concentrations of the test product. The final volume is 2 ml. The reaction is stopped by centrifugation for 10 minutes at 50,000×g. After decantation and washing of the residues, the bound radioactivity is counted by liquid scintillation. The non-specific binding is determined in the presence of 10 μM atropine sulfate.

Test [2] addresses T2, M2 -type muscarinic cholinergic receptor (Cavia porcellus, UniProt H0VRN8).
T2 construct: on a smooth guinea-pig ileum muscle homogenate; from tissue; host or cells: guinea-pig ileum smooth muscle homogenate
T2 sequence (H0VRN8 1-466): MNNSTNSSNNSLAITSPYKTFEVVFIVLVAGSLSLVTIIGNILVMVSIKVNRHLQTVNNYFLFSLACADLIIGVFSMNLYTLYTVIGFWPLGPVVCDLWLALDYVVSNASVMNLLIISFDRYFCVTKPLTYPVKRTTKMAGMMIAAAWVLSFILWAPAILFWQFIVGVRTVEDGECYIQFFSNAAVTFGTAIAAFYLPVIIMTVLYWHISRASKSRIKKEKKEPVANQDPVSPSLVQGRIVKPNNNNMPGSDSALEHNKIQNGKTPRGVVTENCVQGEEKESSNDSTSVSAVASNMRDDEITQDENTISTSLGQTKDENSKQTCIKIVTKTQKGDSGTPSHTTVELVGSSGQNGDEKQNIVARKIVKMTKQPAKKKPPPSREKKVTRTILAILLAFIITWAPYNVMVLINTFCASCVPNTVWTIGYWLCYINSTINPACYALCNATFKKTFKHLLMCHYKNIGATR
Description: Affinity for the M2-type muscarinic cholinergic receptor, displacement of tritiated N-methylscopolamine (3H-NMS) on smooth guinea-pig ileum muscle homogenate. Type of test: binding. The settings on record: guinea-pig ileum smooth muscle homogenate, 3H-NMS 0.3 nM, 20 minutes at 30° C., pH 7.5; read-out: IC50 3H-NMS (M2). The protocol: The M1 -type receptors are concentrated in certain regions of the brain, such as the hippocampus, the cerebral cortex and the striatum, and also in the sympathetic ganglia. These binding sites can be selectively labeled with tritiated pirenzepine (^3 H-PZ). The M2 -type receptors predominate in the heart and the ileum and can be labeled with tritiated N-methyl-scopolamine (^3 H-NMS). The selectivity of the products of the invention with respect to the M1 and M2 sites was determined by studying their in vitro interaction with ^3 H-PZ and ^3 H-NMS firmly bound with a high affinity to rat hippocampus membranes and smooth guinea-pig ileum muscle, respectively.
The interaction with the M2 -type muscarinic receptors was studied by in vitro measurement, on a smooth guinea-pig ileum muscle homogenate, of the displacement of tritiated N-methylscopolamine from its specific binding sites. […] The final volume is 1 ml. The reaction is stopped by centrifugation for 5 minutes at 15,000×g. The non-specific binding is determined in the presence of 10 mM atropine sulfate.
The IC50 for ^3 H-PZ displacement represents the affinity for the M1 receptor; the IC50 for ^3 H-NMS displacement represents the affinity for the M2 receptor.

As to `CCN(CC)CCNc1nc(C)cs1` [SR 44422 A], in test [1], the IC50 amounted to 8.1 µM; the “ratio R of the IC50 values for the M1 and M2 receptors” value (“ratio R of the IC50 values” for short) is recorded as 12. Also, the IC50 in test [2] worked out at 100 µM.
The matching figures for `CCN(CC)CCCNc1nc(-c2ccccc2)c(C)s1` [SR 44434 A]: 1.5 µM, 46 and 70 µM.
Consider `CCN(CC)CCNc1nc(C)c(-c2ccccc2)s1` [SR 44436 A], for which the values for the concentration for half-maximal inhibition (IC50) in test [1] and in test [2] were 1.7 µM and 50 µM, respectively. The “ratio R of the IC50 values” value in test [1] is reported as 29.
The matching figures for `CCN(CC)CCNc1nc(-c2ccccc2)c(-c2ccccc2)s1` [SR 44437 A]: 0.43 µM, 3 µM and 7.
On to `c1ccc(-c2cnc(NCCN3CCCC3)s2)cc1` [SR 44438 A], for which the figures for the IC50 in test [1] and in test [2] were 1 µM and 60 µM, respectively. Further, in test [1], the “ratio R of the IC50 values” value is 60.
Turning to `CCCCN(CCCC)CCNc1nc(-c2ccc(F)cc2)cs1` [SR 44451 A], the IC50 in test [1] was 6 µM; in test [2], 80 µM. The “ratio R of the IC50 values” value in test [1] is given as 13.
`COc1ccccc1-c1csc(NCCCN(C)C)n1` [SR 44465 A]: in test [1], the IC50 was 2.6 µM; the “ratio R of the IC50 values” value amounted to 15. Besides, in test [2], the IC50 was determined as 40 µM.
The matching figures for `CCN(CC)CCNc1nc(C23CC4CC(CC(C4)C2)C3)cs1` [SR 44468 A]: 1.2 µM, 18 and 22 µM.
With `CCN(CC)CCNc1nc(-c2ccc([N+](=O)[O-])cc2)cs1` [SR 44469 A], in test [1], the IC50 was determined as 2.6 µM; the “ratio R of the IC50 values” value stood at 23. Further, the IC50 in test [2] was 60 µM.
The corresponding values for `Cc1nc(NCCN2CCCC2)sc1-c1ccccc1` [SR 44488 A] are 1.7 µM, 20 and 34 µM.
For the molecule `Cc1nc(NCCN(C(C)C)C(C)C)sc1-c1ccccc1` [SR 44489 A], in test [1], the IC50 worked out at 0.3 µM; the “ratio R of the IC50 values” value turned out to be 6. In addition, the IC50 in test [2] was determined as 2 µM.
On to `c1ccc(-c2cnc(NCCN3CCCCC3)s2)cc1` [SR 44490 A], for which, in test [1], the IC50 worked out at 1.5 µM; the “ratio R of the IC50 values” value came to 16. Besides, the half-maximal inhibitory concentration (IC50) in test [2] stood at 25 µM.
The matching figures for `CC(C)N(CCNc1ncc(-c2ccccc2)s1)C(C)C` [SR 44491 A]: 0.8 µM, 10 and 8.5 µM.
As for `CCCCN(CCCC)CCNc1ncc(-c2ccccc2)s1` [SR 44492 A], in test [1], the IC50 was determined as 3.6 µM; the “ratio R of the IC50 values” value is recorded as 8. Also, the IC50 in test [2] came out at 28 µM.
The matching figures for `CCN(CC)CCCNc1nc(Cc2ccccc2)c(-c2ccccc2)s1` [SR 44515 A]: 0.2 µM, 17 and 3.4 µM.
Regarding `c1ccc2cc(-c3csc(NCCN4CCCCC4)n3)ccc2c1` [SR 44516 A], in test [1], the IC50 came to 3.4 µM; the “ratio R of the IC50 values” value is listed as 22. For the same molecule, in test [2], the IC50 was determined as 75 µM.
The corresponding values for `CN(C)CCCNc1nc(C2CCCCC2)cs1` [SR 44574 A] are 0.2 µM, 120 and 24 µM.
The matching figures for `c1csc(-c2csc(NCCN3CCOCC3)n2)c1` [SR 44575 A]: 7 µM, > 14 and > 100 µM.
The matching figures for `Cc1sc(NCCCN(C)C)nc1-c1ccccc1` [SR 44769 A]: 2 µM, 15 and 30 µM.
Take `CN1CCCC1CCNc1nc(-c2ccc(F)cc2)cs1` (stereo not drawn) [SR 44786 A]: in test [1], the IC50 amounted to 0.6 µM; the “ratio R of the IC50 values” value is on record as 67. The half-inhibitory concentration (IC50) in test [2] came out at 40 µM.
`CN(C)CCCNc1nc(-c2cccc([N+](=O)[O-])c2)cs1` [SR 44791 A]: in test [1], the IC50 came out at 5 µM; the “ratio R of the IC50 values” value is 8. Moreover, the IC50 in test [2] was found to be 40 µM.
The corresponding values for `Cc1cc(C)c(-c2csc(NCc3ccccn3)n2)c(C)c1` [SR 44813 A] are 6 µM, > 17 and > 100 µM.
On to `Cc1ccc(-c2csc(NCCCN(C)C)n2)cc1` [SR 44832 A], for which, in test [1], the IC50 was found to be 2.4 µM; the “ratio R of the IC50 values” value is listed as > 42. Also, in test [2], the IC50 is > 100 µM.
The corresponding values for `Fc1ccc(-c2csc(NCc3ccncc3)n2)cc1` [SR 44840 A] are 0.6 µM, > 167 and > 100 µM.
Turning to `Cc1cc(C)c(-c2csc(NCc3ccncc3)n2)c(C)c1` [SR 44864 A], the results for the IC50 in test [1] and in test [2] were 0.28 µM and > 100 µM, respectively. For the same molecule, in test [1], the “ratio R of the IC50 values” value was > 360.
The corresponding values for `NCCCNc1nc(-c2ccc(F)cc2)cs1` [SR 44886 A, 2-[(3-Aminopropyl)amino]-4-(4-fluorophenyl)thiazole] are 6.3 µM, 70 µM and 11.
The corresponding values for `c1ccc(-c2nc(NCc3cccnc3)sc2-c2ccccc2)cc1` [SR 44904 A] are 6 µM, > 100 µM and > 17.
For `Cc1cc(C)c(-c2csc(NCCc3ccccn3)n2)c(C)c1` [SR 44905 A], in test [1], the IC50 stood at 2.4 µM; the “ratio R of the IC50 values” value stood at 25. The IC50 in test [2] amounted to 60 µM.
The corresponding values for `c1ccc(-c2nc(NCCc3ccccn3)sc2-c2ccccc2)cc1` [SR 44906 A] are 2.4 µM, > 42 and > 100 µM.
The corresponding values for `Cc1cc(C)c(-c2csc(NCCN(C(C)C)C(C)C)n2)c(C)c1` [SR 44908 A] are 0.13 µM, 31 and 4 µM.
Consider `CC(C)N(CCCNc1nc(-c2ccc(F)cc2F)cs1)C(C)C` [SR 44916 A], for which, in test [1], the IC50 came to 0.13 µM; the “ratio R of the IC50 values” value was determined as 38. Further, the IC50 in test [2] is 5 µM.
Regarding `CCc1nc(NCCCN(CC)CC)sc1-c1ccccc1` [SR 44963 A], the IC50 in test [1] worked out at 0.12 µM; in test [2], 6 µM. Besides, the “ratio R of the IC50 values” value in test [1] amounted to 50.
The corresponding values for `c1ccc(-c2cnc(NCCc3ccncc3)s2)cc1` [SR 44966 A] are 4.5 µM, 100 µM and 22.
The corresponding values for `CN(C)CCCNc1ncc(-c2ccccc2)s1` [SR 44967 A] are 1.8 µM, 40 µM and 22.
Turning to `CC(C)(c1ccccc1)c1csc(NCc2cccnc2)n1` [SR 45106 A], in test [1], the IC50 worked out at 3 µM; the “ratio R of the IC50 values” value was > 33. The IC50 in test [2] was > 100 µM.
